Source: ChEMBL document CHEMBL3351830, “Discovery and structure-activity relationships of phenyl benzenesulfonylhydrazides as novel indoleamine 2,3-dioxygenase inhibitors” (Bioorg Med Chem Lett, 2014)

Columns and labels:
[1] = target: T1, Indoleamine 2,3-dioxygenase 1 (Homo sapiens, UniProt P14902); experiment: Inhibition of human recombinant IDO expressed in Escherichia coli using N-formylkynurenine as substrate incubated for 1 hr prior to NaOH addition measured after 4 hrs by spectrophotometry
[2] = target: T1, Indoleamine 2,3-dioxygenase 1; experiment: Inhibition of IDO in human HeLa cells after 24 hrs by spectrophotometry; format: cell-based

T1 sequence (P14902 whole entry): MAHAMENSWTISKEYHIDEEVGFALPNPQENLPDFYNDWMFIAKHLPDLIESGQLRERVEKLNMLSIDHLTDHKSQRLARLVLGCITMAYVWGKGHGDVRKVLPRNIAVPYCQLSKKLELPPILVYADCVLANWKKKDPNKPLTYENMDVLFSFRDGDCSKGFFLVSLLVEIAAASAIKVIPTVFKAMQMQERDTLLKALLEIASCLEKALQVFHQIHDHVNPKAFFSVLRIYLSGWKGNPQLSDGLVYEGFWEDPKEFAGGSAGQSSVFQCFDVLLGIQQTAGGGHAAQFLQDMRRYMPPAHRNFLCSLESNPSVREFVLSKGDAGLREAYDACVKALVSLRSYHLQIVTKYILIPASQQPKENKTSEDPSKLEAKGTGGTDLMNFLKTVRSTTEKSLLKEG

SMILES	IC50 [1]	EC50 [2]
Cc1cccc(NNS(=O)(=O)c2ccc(C#N)cc2)c1	59 nM	3400 nM
Cc1cccc(NNS(=O)(=O)c2ccc(Oc3ccc(C(F)(F)F)cn3)cc2)c1	59 nM	296 nM
CC(=O)Nc1ccc(S(=O)(=O)NNc2ccccc2)cc1	71 nM	> 10000 nM
CC(=O)Nc1ccc(S(=O)(=O)NNc2ccc(C)cc2)cc1	51 nM	1170 nM
CC(=O)Nc1ccc(S(=O)(=O)NNc2ccc(Cl)cc2)cc1	155 nM	142 nM
CC(=O)Nc1ccc(S(=O)(=O)NNc2ccc(Br)cc2)cc1	130 nM	85 nM
CC(=O)Nc1ccc(S(=O)(=O)NNc2cccc(F)c2)cc1	122 nM	> 10000 nM
CC(=O)Nc1ccc(S(=O)(=O)NNc2cccc(Br)c2)cc1	255 nM	7560 nM
CC(=O)Nc1ccc(S(=O)(=O)NNc2ccc(F)c(Cl)c2)cc1	110 nM	2590 nM
CC(=O)Nc1ccc(S(=O)(=O)NNc2ccc(Br)c(C)c2)cc1	58 nM	130 nM
CC(=O)Nc1ccc(S(=O)(=O)NNc2ccc(Cl)c(F)c2)cc1	194 nM	84 nM
CC(=O)Nc1ccc(S(=O)(=O)NNc2cc(F)cc(F)c2)cc1	1750 nM	2230 nM
CC(=O)Nc1ccc(S(=O)(=O)NNc2ccc(Cl)c(Cl)c2)cc1	247 nM	350 nM
CC(=O)Nc1ccc(S(=O)(=O)NNc2cc(Cl)cc(Cl)c2)cc1	352 nM	508 nM
O=S(=O)(NNc1ccc(Br)cc1)c1ccccc1	172 nM	128 nM
COc1ccc(S(=O)(=O)NNc2ccc(Br)cc2)cc1	1430 nM	640 nM
N#Cc1ccc(S(=O)(=O)NNc2ccc(Br)cc2)cc1	176 nM	134 nM
CCCC(=O)Nc1ccc(S(=O)(=O)NNc2ccc(Br)cc2)cc1	132 nM	187 nM
O=C(O)COc1ccc(S(=O)(=O)NNc2ccc(Br)cc2)cc1	125 nM	152 nM
CC(=O)Nc1ccc(S(=O)(=O)NN(C)c2ccc(Br)cc2)cc1	4050 nM	

The next lines start with the values.

IC50 [1]	EC50 [2]	SMILES
49 nM	241 nM	CC(=O)Nc1ccc(S(=O)(=O)NNc2cccc(C)c2)cc1
167 nM	> 10000 nM	O=S(=O)(CCc1ccccc1)NNc1ccccc1
80 nM	271 nM	Cc1cccc(NNS(=O)(=O)c2ccc(C(=O)NCC(=O)O)cc2)c1
43 nM	7850 nM	Cc1cccc(NNS(=O)(=O)c2ccc(S(C)(=O)=O)cc2)c1
254 nM	> 10000 nM	COc1ccc(NNS(=O)(=O)c2ccc(NC(C)=O)cc2)cc1
5670 nM	1390 nM	CC(=O)Nc1ccc(S(=O)(=O)NNc2ccc(C#N)cc2)cc1
2480 nM	3120 nM	CC(=O)Nc1ccc(S(=O)(=O)NNc2ccc(S(N)(=O)=O)cc2)cc1
1610 nM	181 nM	CC(=O)Nc1ccc(S(=O)(=O)NNc2ccc(C(F)(F)F)cc2)cc1
79 nM	609 nM	CC(=O)Nc1ccc(S(=O)(=O)NNc2ccc(F)cc2)cc1
128 nM	2490 nM	CC(=O)Nc1ccc(S(=O)(=O)NNc2ccc(F)c(Br)c2)cc1
205 nM	187 nM	CC(=O)Nc1ccc(S(=O)(=O)NNc2ccc(Br)c(F)c2)cc1
608 nM	> 10000 nM	CC(=O)Nc1ccc(S(=O)(=O)NNc2ccc(F)cc2F)cc1
85 nM	374 nM	O=S(=O)(NNc1ccc(Br)cc1)c1ccc(Br)cc1
121 nM	465 nM	COC(=O)CCc1ccc(S(=O)(=O)NNc2ccc(Br)cc2)cc1
141 nM	183 nM	O=C(O)CCc1ccc(S(=O)(=O)NNc2ccc(Br)cc2)cc1
61 nM	172 nM	O=C(O)c1ccc(S(=O)(=O)NNc2ccc(Br)cc2)cc1
